Results from patent US10765114B2, “4-amino-6-(pyridyl and 2-substitutedphenyl)-picolinates and 6-amino-2-(pyridyl and 2-substitutedphenyl)-pyrimidine-4-carboxylates and their use as herbicides” (Dow AgroSciences LLC, priority 2013, dated 2020).

Assays:
Test in all cases: Post-Emergent Test III (Wheat and Barley)
[1] = tested on: ALOMY (blackgrass); format: in vivo, Alopecurus myosuroides; details: for pest or weed control at 35 g/ha / pest or weed control at 70 g/ha / pest or weed control at 140 g/ha: Alopecurus myosuroides, post-emergence, 504 h, postemergence, read-out: Visual Growth Reduction (%) 21 Days After Application, ALOMY; for pest or weed control at 35 g/ha: 35 g ai/ha; for pest or weed control at 70 g/ha: 70 g ai/ha; for GR50, ALOMY: effective dose for growth reduction of 50 percent; for GR50, ALOMY / GR80, ALOMY: probit analysis; for GR80, ALOMY: effective dose for growth reduction of 80 percent; for pest or weed control at 140 g/ha: 140 g ai/ha
Protocol: (§1) Seeds of the desired test plant species were planted in Sun Gro MetroMix® 306 planting mixture, which typically has a pH of 6.0 to 6.8 and an organic matter content of about 30 percent, in plastic pots with a surface area of 103.2 square centimeters (cm^2). When required to ensure good germination and healthy plants, a fungicide treatment and/or other chemical or physical treatment was applied. The plants were grown for 7-36 days in a greenhouse with an approximate 14 h photoperiod which was maintained at about 18° C. during the day and 17° C. during the night. Nutrients and water were added on a regular basis and supplemental lighting was provided with overhead metal halide 1000-Watt lamps as necessary. The plants were employed for testing when they reached the second or third true leaf stage.
(§2) A weighed amount, determined by the highest rate to be tested, of each test compound was placed in a 25 mL glass vial and was dissolved in 4 mL of a 97:3 v/v mixture of acetone and DMSO to obtain concentrated stock solutions. […] The concentrated stock solutions obtained were diluted with 20 mL of an aqueous mixture containing acetone, water, isopropyl alcohol, DMSO, Agri-Dex crop oil concentrate, and X-77 surfactant in a 48:39:10:1.5:1.5:0.02 v/v ratio to obtain spray solutions containing the highest application rates. Additional application rates were obtained by serial dilution of 12 mL of the high rate solution into a solution containing 2 mL of 97:3 v/v mixture of acetone and DMSO and 10 mL of an aqueous mixture containing acetone, water, isopropyl alcohol, DMSO, Agri-Dex crop oil concentrate, and X-77 surfactant in a 48:39:10:1.5:1.5:0.02 v/v ratio to obtain ½×, ¼×, ⅛× and 1/16× rates of the high rate. Compound requirements are based upon a 12 mL application volume at a rate of 187 liters per hectare (L/ha). Formulated compounds were applied to the plant material with an overhead Mandel track sprayer equipped with 8002E nozzles calibrated to deliver 187 L/ha over an application area of 0.503 square meters at a spray height of 18 inches (43 cm) above the average plant canopy height. Control plants were sprayed in the same manner with the solvent blank.
(§3) The treated plants and control plants were placed in a greenhouse as described above and watered by subirrigation to prevent wash-off of the test compounds. After 21 dAYS, the condition of the test plants as compared with that of the untreated plants was determined visually and scored on a scale of 0 to 100 percent where 0 corresponds to no injury and 100 corresponds to complete kill and presented as indicated in Table A.
(§4) By applying the well-accepted probit analysis as described by J. Berkson in Journal of the American Statistical Society, 48, 565 (1953) and by D. Finney in “Probit Analysis” Cambridge University Press (1952), herbicidal injury of a specific compound at various rates can be used to calculate GR10, GR20, GR50, GR80 and GR90 values, which are defined as growth reduction factors that correspond to the effective dose of herbicide required to provide plant growth reduction (GR) of 10 percent, 20 percent, 50 percent, 80 percent and 90 percent, respectively. Probit analysis was applied to data collected from multiple dose rates of individual compounds utilizing the procedures explained in the following examples. The analysis of those dose rates is captured in the following tables.

[2] = tested on: APESV (windgrass); format: in vivo, Apera spica-venti; details: for pest or weed control at 35 g/ha / pest or weed control at 70 g/ha / pest or weed control at 140 g/ha: Apera spica-venti, post-emergence, 504 h, postemergence, read-out: Visual Growth Reduction (%) 21 Days After Application, APESV; for pest or weed control at 35 g/ha: 35 g ai/ha; for pest or weed control at 70 g/ha: 70 g ai/ha; for GR50, APESV: effective dose for growth reduction of 50 percent; for GR50, APESV / GR80, APESV: probit analysis; for GR80, APESV: effective dose for growth reduction of 80 percent; for pest or weed control at 140 g/ha: 140 g ai/ha
Protocol: as §1, §2, §3, §4

[3] = tested on: KCHSC (kochia); format: in vivo, Kochia scoparia; details: for pest or weed control at 35 g/ha / pest or weed control at 70 g/ha / pest or weed control at 140 g/ha: Bassia scoparia, post-emergence, 504 h, postemergence, read-out: Visual Growth Reduction (%) 21 Days After Application, KCHSC; for pest or weed control at 35 g/ha: 35 g ai/ha; for pest or weed control at 70 g/ha: 70 g ai/ha; for GR50, KCHSC: effective dose for growth reduction of 50 percent; for GR50, KCHSC / GR80, KCHSC: probit analysis; for GR80, KCHSC: effective dose for growth reduction of 80 percent; for pest or weed control at 140 g/ha: 140 g ai/ha
Protocol: as §1, §2, §3, §4

[4] = tested on: SETVI (green foxtail); format: in vivo, Setaria viridis; details: for pest or weed control at 35 g/ha / pest or weed control at 70 g/ha / pest or weed control at 140 g/ha: Setaria viridis, post-emergence, 504 h, postemergence, read-out: Visual Growth Reduction (%) 21 Days After Application, SETVI; for pest or weed control at 35 g/ha: 35 g ai/ha; for pest or weed control at 70 g/ha: 70 g ai/ha; for GR50, SETVI: effective dose for growth reduction of 50 percent; for GR50, SETVI / GR80, SETVI: probit analysis; for GR80, SETVI: effective dose for growth reduction of 80 percent; for pest or weed control at 140 g/ha: 140 g ai/ha
Protocol: as §1, §2, §3, §4

[5] = tested on: HORSS; format: in vivo; details: for pest or weed control at 35 g/ha / pest or weed control at 70 g/ha / pest or weed control at 140 g/ha: Hordeum vulgare, post-emergence, 504 h, postemergence, read-out: Visual Growth Reduction (%) 21 Days After Application, HORSS; for pest or weed control at 35 g/ha: 35 g ai/ha; for pest or weed control at 70 g/ha: 70 g ai/ha; for GR20, HORSS: effective dose for growth reduction of 20 percent, probit analysis; for pest or weed control at 140 g/ha: 140 g ai/ha
Protocol: as §1, §2, §3, §4

[6] = tested on: TRZSS; format: in vivo; details: for pest or weed control at 35 g/ha / pest or weed control at 70 g/ha / pest or weed control at 140 g/ha: Triticum aestivum, post-emergence, 504 h, postemergence, read-out: Visual Growth Reduction (%) 21 Days After Application, TRZSS; for pest or weed control at 35 g/ha: 35 g ai/ha; for pest or weed control at 70 g/ha: 70 g ai/ha; for GR20, TRZSS: effective dose for growth reduction of 20 percent, probit analysis; for pest or weed control at 140 g/ha: 140 g ai/ha
Protocol: as §1, §2, §3, §4

Compound | pest or weed control at 35 g/ha [1] | pest or weed control at 70 g/ha [1] | GR50, ALOMY [1] | GR80, ALOMY [1] | pest or weed control at 35 g/ha [2] | pest or weed control at 70 g/ha [2] | GR50, APESV [2] | GR80, APESV [2] | pest or weed control at 35 g/ha [3] | pest or weed control at 70 g/ha [3] | GR50, KCHSC [3] | GR80, KCHSC [3] | pest or weed control at 35 g/ha [4] | pest or weed control at 70 g/ha [4] | GR50, SETVI [4] | GR80, SETVI [4] | pest or weed control at 35 g/ha [5] | pest or weed control at 70 g/ha [5] | GR20, HORSS [5] | pest or weed control at 35 g/ha [6] | also measured
COC(=O)c1nc(-c2ccc(C(F)(F)F)nc2)c(Cl)c(N)c1Cl [Compound 83] | 60 to 74% | 75 to 84% | 25 g ai/ha | 58 g ai/ha | 30 to 44% | 30 to 44% | 89 g ai/ha | >140 g ai/ha | 0 to 29% | 30 to 44% | 113 g ai/ha | >140 g ai/ha | 0 to 29% | 60 to 74% | 63 g ai/ha | 139 g ai/ha | 75 to 84% | 85 to 94% | 3 g ai/ha | 60 to 74% | pest or weed control at 70 g/ha [6]: 75 to 84%; GR20, TRZSS [6]: 4 g ai/ha
COC(=O)c1nc(-c2ccc(C3CC3)nc2)c(F)c(N)c1Cl [Compound 49] | 0 to 29% | 30 to 44% | >140 g ai/ha | >140 g ai/ha | 85 to 94% | 75 to 84% | 1 g ai/ha | 24 g ai/ha | 95 to 100% | 95 to 100% | 9 g ai/ha | 17 g ai/ha | 30 to 44% | 95 to 100% | 28 g ai/ha | 57 g ai/ha | 75 to 84% | 85 to 94% | 1 g ai/ha | 75 to 84% | pest or weed control at 140 g/ha [1]: 45 to 59%; pest or weed control at 140 g/ha [2]: 85 to 94%; pest or weed control at 140 g/ha [3]: 85 to 94%; pest or weed control at 140 g/ha [4]: 95 to 100%; pest or weed control at 140 g/ha [5]: 85 to 94%; pest or weed control at 70 g/ha [6]: 85 to 94%; pest or weed control at 140 g/ha [6]: 85 to 94%; GR20, TRZSS [6]: 1 g ai/ha
Nc1c(Cl)c(C(=O)O)nc(-c2ccc(C(F)(F)F)nc2)c1Cl [Compound 33] | 60 to 74% | 75 to 84% | 37 g ai/ha | 72 g ai/ha | 0 to 29% | 60 to 74% | 70 g ai/ha | 134 g ai/ha | 0 to 29% | 45 to 59% | 95 g ai/ha | >140 g ai/ha | 45 to 59% | 60 to 74% | 48 g ai/ha | >140 g ai/ha | 75 to 84% | 85 to 94% | 1 g ai/ha | 75 to 84% | pest or weed control at 140 g/ha [1]: 85 to 94%; pest or weed control at 140 g/ha [2]: 60 to 74%; pest or weed control at 140 g/ha [3]: 60 to 74%; pest or weed control at 140 g/ha [4]: 60 to 74%; pest or weed control at 140 g/ha [5]: 85 to 94%; pest or weed control at 70 g/ha [6]: 75 to 84%; pest or weed control at 140 g/ha [6]: 85 to 94%; GR20, TRZSS [6]: 1 g ai/ha
Nc1c(F)c(-c2ccc(OC(F)F)nc2)nc(C(=O)O)c1Cl [Compound 66] | 0 to 29% | 0 to 29% | 140 g ai/ha | >140 g ai/ha | 0 to 29% | 0 to 29% | 130 g ai/ha | >140 g ai/ha | 0 to 29% | 45 to 59% | 80 g ai/ha | >140 g ai/ha | 30 to 44% | 60 to 74% | 49 g ai/ha | 112 g ai/ha | 60 to 74% | 60 to 74% | 15 g ai/ha | 75 to 84% | pest or weed control at 140 g/ha [1]: 45 to 59%; pest or weed control at 140 g/ha [2]: 60 to 74%; pest or weed control at 140 g/ha [3]: 60 to 74%; pest or weed control at 140 g/ha [4]: 75 to 84%; pest or weed control at 140 g/ha [5]: 85 to 94%; pest or weed control at 70 g/ha [6]: 85 to 94%; pest or weed control at 140 g/ha [6]: 95 to 100%; GR20, TRZSS [6]: 8 g ai/ha
COC(=O)c1nc(-c2ccc(Cl)c(F)c2OC)c(F)c(N)c1Cl [Compound 39, methyl 4-amino-3-chloro-6-(4-chloro-3-fluoro-2-methoxyphenyl)-5-fluoropicolinate] | 0 to 29% | 30 to 44% | >140 g ai/ha | >140 g ai/ha | 30 to 44% | 60 to 74% | 75 g ai/ha | >140 g ai/ha | 85 to 94% | 95 to 100% | 6 g ai/ha | 21 g ai/ha | 0 to 29% | 0 to 29% | >140 g ai/ha | >140 g ai/ha | 30 to 44% | 60 to 74% | 23 g ai/ha | 85 to 94% | pest or weed control at 140 g/ha [1]: 30 to 44%; pest or weed control at 140 g/ha [2]: 60 to 74%; pest or weed control at 140 g/ha [3]: 95 to 100%; pest or weed control at 140 g/ha [4]: 45 to 59%; pest or weed control at 140 g/ha [5]: 75 to 84%; pest or weed control at 70 g/ha [6]: 95 to 100%; pest or weed control at 140 g/ha [6]: 95 to 100%; GR20, TRZSS [6]: 11 g ai/ha
